Holding throughout (format): cell-based
For assay [1], the system named is human acute myeloid leukemia cell line MV-4-11. Nature of the assay: Cytostatic activity on leukemia cell line MV-4-11 (WST-1). As to conditions: Homo sapiens, MV4-11; 10 μmol/L, 72 hours, MV-4-11 cells; read-out: cytostatic rate MV-4-11 (%) (10 μmol/L). The method, then: (§1) The cytostatic rates of a test compound on human acute myeloid leukemia cell lines MV-4-11 and ML-1, and human chronic myeloid leukemia cell line K562 were determined in the following manner.
(§2) Each cell was cultured using Roswell Park Memorial Institute's Medium (RPMI) 1640 (Gibco, Catalog No. 11875-093) containing 10% fetal bovine serum (Gibco, Catalog No. 10437-028) and 1% penicillin/streptomycin (1:1) (Gibco, Catalog No. 15140-122). Each 80 μL of the MV-4-11 cell having a concentration of 7.5×10^4 cells/mL (or the ML-1 cell or K562 cell having a concentration of 2.5×10^4 cells/mL) was inoculated to wells of a TC MICROWELL 96U plate (Nalge Nunc International, Catalog No. 163320) and was cultured in a 5% carbon dioxide gas incubator at 37° C. for 4 hours. As a blank, only RPMI medium (80 μL) was added to a well. Each 20 μL of a solution of the test compound in dimethyl sulfoxide (DMSO) which was prepared to make the final concentration to 10 μmol/L, was added to the MV-4-11 cell, ML-1 cell and K562 cell, respectively. Each 20 μL of DMSO was added to the control well and the blank well to […]. After adding the test compound, the cells were incubated in a 5% carbon dioxide gas incubator at 37° C. for 72 hours. After adding 20 μL of WST-1 reagent {4-[3-(4-iodophenyl)-2-(4-nitrophenyl)-2H-5-tetrazolio]-1,3-benzene disulfonate sodium salt} (Roche Diagnostics K.K., Catalog No. 1644807) diluted to 50% with RPMI medium, the cells were further incubated at 37° C. for 2 hours. Then, the absorbances at 450 nm (reference wavelength: 690 nm) were determined with a microplate spectrophotometer SPECTRA max 340PC (Molecular Devices Corporation). The relative growth (%) of a well to which the test compound had been added was determined while setting the absorbance of a well to which not the test compound but DMSO alone had been added (control) at 100% and that of a well containing RPMI medium alone at 0%. The cytostatic rate (%) of the test compound was determined by subtracting the calculated relative growth from 100.

Assay [2] concerns human acute myeloid leukemia cell line ML-1. The experiment in a line: Cytostatic activity on leukemia cell line ML-1 (WST-1). The note with it: Homo sapiens, ML1; 10 μmol/L, 72 hours, ML-1 cells; read-out: cytostatic rate ML-1 (%) (10 μmol/L). The procedure:
as §1, §2

Assay [3] deals with human chronic myeloid leukemia cell line K562. Nature of the assay: Cytostatic activity on leukemia cell line K562 (WST-1). As to conditions: Homo sapiens; 10 μmol/L, 72 hours, K562 cells; read-out: cytostatic rate K562 (%) (10 μmol/L). The method, then:
as §1, §2

In assay [4] the test system is human colon cancer cell line Colo205. Nature of the assay: Cytostatic activity on solid carcinoma cell line Colo205 (WST-1). The note with it: Homo sapiens, COLO 205; 10 μmol/L, 72 hours, Colo205 cells; read-out: cytostatic rate Colo205 (%) (10 μmol/L). The method, then:
as §2
The cytostatic rate of a test compound on the human colon cancer cell line Colo205 was determined in the following manner.
The cell was cultured using Roswell Park Memorial Institute's Medium (RPMI) 1640 (Gibco, Catalog No. 11875-093) containing 10% fetal bovine serum (Gibco, Catalog No. 10437-028) and 1% penicillin/streptomycin (1:1) (Gibco, Catalog No. 15140-122). Each 80 μL of the Colo205 having a concentration of 1.25×10^4 cells/mL was inoculated to wells of a TC MICROWELL 96F plate (Nalge Nunc International, Catalog No. 167008) and was cultured in a 5% carbon dioxide gas incubator at 37° C. for 24 hours. As a blank, only RPMI (80 μL) was added to a well. Each 20 μL of a solution of the test compound in DMSO which was prepared to make the final concentration to 10 μmol/L, was added to the Colo205 cell. Each 20 μL of DMSO was added to the control well and the blank well to […]. After adding the test compound, the cell was incubated in a 5% carbon dioxide gas incubator at 37° C. for 72 hours. The cytostatic rate (%) was then determined in the same way as the leukemia cell lines.
In general terms: Tetrazolium dyes change colour on reduction, which living cells bring about.

Counter-ions that a name gives are not always drawn.

Regarding `CC(C)C(=O)N1CCN(C(=O)c2ccc(/C=C/c3n[nH]c4ccccc34)cc2)CC1` [Compound 56, (E)-4-isobutyryl-1-{4-[2-(1H-indazol-3-yl)vinyl]benzoyl}piperazine], the inhibition at 10 µM stood at 98% in assay [1], 78% in assay [2], 87% in assay [3] and 88% in assay [4].
The matching figures for `O=C(c1ccc(/C=C/c2n[nH]c3ccccc23)cc1)N1CCN(C(=O)c2ccsc2)CC1` [Compound 58, (E)-4-(3-thiophenecarbonyl)-1-{4-[2-(1H-indazol-3-yl)vinyl]benzoyl}piperazine]: 96%, 74%, 89% and 85%.
For `NCC(=O)N1CCN(C(=O)c2ccc(/C=C/c3n[nH]c4ccccc34)cc2)CC1` [Compound 61, (E)-4-aminoacetyl-1-{4-[2-(1H-indazol-3-yl)vinyl]benzoyl}piperazine hydrochloride], in that order: 98%, 79%, 85% and 87%.
In the case of `CCN(CC)CCNC(=O)c1ccc(/C=C/c2n[nH]c3ccccc23)cc1` [Compound 63, (E)-N-[2-(diethylamino)ethyl]-4-[2-(1H-indazol-3-yl)vinyl]benzamide], the inhibition at 10 µM came to 98% in assay [1], 87% in assay [2], 76% in assay [3] and 88% in assay [4].
For the compound `NC1CCN(C(=O)c2ccc(/C=C/c3n[nH]c4ccccc34)cc2)CC1` [Compound 64, (E)-1-{4-[2-(1H-indazol-3-yl)vinyl]benzoyl}-4-aminopiperidine], the inhibition at 10 µM came out at 98% in assay [1], 89% in assay [2], 91% in assay [3] and 94% in assay [4].
The matching figures for `COCC(=O)N1CCN(C(=O)c2ccc(/C=C/c3n[nH]c4ccccc34)cc2)CC1` [Compound 65, (E)-4-methoxyacetyl-1-{4-[2-(1H-indazol-3-yl)vinyl]benzoyl}piperazine]: 97%, 86%, 85% and 88%.
As to `CC(C)CC(=O)N1CCN(C(=O)c2ccc(/C=C/c3n[nH]c4ccccc34)cc2)CC1` [Compound 66, (E)-4-(3-methylbutyryl)-1-{4-[2-(1H-indazol-3-yl)vinyl]benzoyl}piperazine], the inhibition at 10 µM in assay [1] was determined as 99%; in assay [2] it was 74%; in assay [3] it was 89%; in assay [4] it was 83%.
For `CC(C)(O)C(=O)N1CCN(C(=O)c2ccc(/C=C/c3n[nH]c4ccccc34)cc2)CC1` [Compound 68, (E)-4-(2-methyl-2-hydroxypropionyl)-1-{4-[2-(1H-indazol-3-yl)vinyl]benzoyl}piperazine], in that order: 97%, 79%, 91% and 90%.
Turning to `CC(C)(CO)C(=O)N1CCN(C(=O)c2ccc(/C=C/c3n[nH]c4ccccc34)cc2)CC1` [Compound 72, (E)-4-(3-hydroxy-2,2-dimethylpropionyl)-1-{4-[2-(1H-indazol-3-yl)vinyl]benzoyl}piperazine], the inhibition at 10 µM in assay [1] was determined as 100%; in assay [2] it was 80%; in assay [3], 95%; in assay [4], 93%.
On to `CC(=O)N1CCN(C(=O)c2ccc(/C=C/c3n[nH]c4ccccc34)cc2C)CC1` [Compound 73, (E)-4-acetyl-1-{2-methyl-4-[2-(1H-indazol-3-yl)vinyl]benzoyl}piperazine], for which the inhibition at 10 µM in assay [1] came to 97%; in assay [2], 87%; in assay [3] it was 68%; in assay [4], 89%.
As to `COC(=O)N1CCN(C(=O)c2ccc(/C=C/c3n[nH]c4ccccc34)cc2)CC1` [Compound 75, (E)-4-methoxycarbonyl-1-{4-[2-(1H-indazol-3-yl)vinyl]benzoyl}piperazine hydrochloride], the inhibition at 10 µM amounted to 99% in assay [1], 88% in assay [2], 85% in assay [3] and 88% in assay [4].
For the compound `CC1(C(=O)N2CCN(C(=O)c3ccc(/C=C/c4n[nH]c5ccccc45)cc3)CC2)CC1` [Compound 77, (E)-4-(1-methylcyclopropanecarbonyl)-1-{4-[2-(1H-indazol-3-yl)vinyl]benzoyl}piperazine], the inhibition at 10 µM in assay [1] was found to be 98%; in assay [2], 80%; in assay [3], 95%; in assay [4], 86%.
For `CC(C)(C)CC(=O)N1CCN(C(=O)c2ccc(/C=C/c3n[nH]c4ccccc34)cc2)CC1` [Compound 78, (E)-4-(3,3-dimethylbutyryl)-1-{4-[2-(1H-indazol-3-yl)vinyl]benzoyl}piperazine], in that order: 98%, 64%, 90% and 82%.
For `CCN(CC)C(=O)C1CCN(C(=O)c2ccc(/C=C/c3n[nH]c4ccccc34)cc2)CC1` [Compound 81, (E)-N,N-diethyl-1-{4-[2-(1H-indazol-3-yl)vinyl]benzoyl}piperidine-4-carboxamide], in that order: 98%, 77%, 95% and 85%.
In the case of `O=C(c1ccc(/C=C/c2n[nH]c3ccccc23)cc1)N1CCCNCC1` [Compound 85, (E)-1-{4-[2-(1H-indazol-3-yl)vinyl]benzoyl}homopiperazine dihydrochloride], the inhibition at 10 µM worked out at 99% in assay [1], 78% in assay [2], 90% in assay [3] and 89% in assay [4].
The matching figures for `NC(=O)C1CCN(C(=O)c2ccc(/C=C/c3n[nH]c4ccccc34)cc2)CC1` [Compound 86, (E)-1-{4-[2-(1H-indazol-3-yl)vinyl]benzoyl}piperidine-4-carboxamide]: 98%, 87%, 88% and 89%.
Consider `O=C(c1ccc(/C=C/c2n[nH]c3ccccc23)cc1)N1CCC(O)CC1` [Compound 87, (E)-1-{4-[2-(1H-indazol-3-yl)vinyl]benzoyl}-4-hydroxypiperidine], for which the inhibition at 10 µM in assay [1] was determined as 99%; in assay [2], 88%; in assay [3] it was 76%; in assay [4] it was 86%.
Take `O=C1CN(C(=O)c2ccc(/C=C/c3n[nH]c4ccccc34)cc2)CCN1` [Compound 89, (E)-4-{4-[2-(1H-indazol-3-yl)vinyl]benzoyl}piperazin-2-one]: the inhibition at 10 µM in assay [1] is 98%; in assay [2], 86%; in assay [3], 61%; in assay [4], 92%.
